These results are taken from US10052330B2, “Substituted pyrido[3,4-b]pyrazines as Syk inhibitors” (HUTCHISON MEDIPHARMA LIMITED, priority 2011, dated 2018).

One assay deals with Syk kinase (Homo sapiens, UniProt P43405). The assay can be described thus: Syk kinase enzymatic assay (Kit-Tyr 2 Peptide). The class given is biochemical. The following applies: 8 concentrations, 1 μM down to 0.0003 μM; upper bound of each range is 'less than'; read-out: IC50: Enzymatic Activity (Syk kinase).
A further assay relates to RBL-2H3 cells. The assay can be described thus: IgE-induced Beta-hexosaminidase secretion in RBL-2H3 cells. The class given is cell-based. Conditions: Rattus norvegicus, RBL-2H3, RBL-2H3 cells sensitized with SPE-7, stimulated with DNP-BSA; upper bound of each range is 'less than'; read-out: IC50, IgE-induced Beta-hexosaminidase secretion.

With `CS(=O)(=O)CC(=O)N1CCN(c2ccc(-c3cc4nccnc4c(NC[C@@H]4CNCCO4)n3)cc2)CC1` [Compound 280], the values for the IC50 at Syk kinase and in the assay with RBL-2H3 cells were 1 to 100 nM and 100 to 1000 nM, respectively.

Turning to `Cc1ccc(-c2cc3nccnc3c(NC[C@H]3CCCNC3)n2)cc1Cl` [Compound 80], the IC50 on Syk kinase lay within 1 to 100 nM; with RBL-2H3 cells, 100 to 1000 nM.

For `COc1cc(OC)cc(-c2cc3nccnc3c(NCC3CCCNC3)n2)c1` (stereo not shown) [Compound 15], the IC50 on Syk kinase and with RBL-2H3 cells was 100 to 1000 nM in each case.

As for `c1cnc2c(NCCc3c[nH]cn3)nc(-c3ccc(N4CCOCC4)cc3)cc2n1` [Compound 172], the IC50 on Syk kinase and in the assay on RBL-2H3 cells was 100 to 1000 nM each time.

`OCCOC1CCN(c2ccc(-c3cc4nccnc4c(NC[C@@H]4CNCCO4)n3)cc2)CC1` [Compound 286]: the IC50 on Syk kinase and in the assay with RBL-2H3 cells was 1 to 100 nM in each case.

On to `CN1CCC(c2ccc(-c3cc4nccnc4c(NC[C@@H]4CN(C(=O)C(F)F)CCO4)n3)cc2)CC1` [Compound 463], for which the IC50 on Syk kinase lay within 1 to 100 nM; in the assay on RBL-2H3 cells, 100 to 1000 nM.

On to `Fc1ccc(-c2cc3nccnc3c(NCC3CCCNC3)n2)cc1` (stereo not shown) [Compound 23], for which the IC50 on Syk kinase and in the assay on RBL-2H3 cells was 100 to 1000 nM throughout.

Turning to `Clc1ccc(-c2cc3nccnc3c(NC[C@H]3CCCNC3)n2)cc1` [Compound 85], the figures for the IC50 at Syk kinase and in the assay on RBL-2H3 cells were 1 to 100 nM and 100 to 1000 nM, respectively.

Take `OCCN1CCN(c2ccc(-c3cc4nccnc4c(NCC4CNCCO4)n3)cc2)CC1` (stereo not shown) [Compound 216]: the IC50 at Syk kinase and in the assay on RBL-2H3 cells was 1 to 100 nM in each case.

For the molecule `CC(=O)N1CCN(c2ccc(-c3cc4nccnc4c(NC[C@@H]4CNCCC4(F)F)n3)cc2)CC1` [Compound 384, (S)-1-(4-(4-(5-((4,4-difluoropiperidin-3-yl)methylamino)pyrido[4,3-b]pyrazin-7-yl)phenyl)piperazin-1-yl)ethanone], the IC50 on Syk kinase and in the assay on RBL-2H3 cells was 1 to 100 nM each time.

As for `CS(=O)(=O)N1CCO[C@H](CNc2nc(-c3ccc(C4CCN(CCO)CC4)cc3)cc3nccnc23)C1` [Compound 493], the IC50 at Syk kinase lay in the range of 1 to 100 nM; with RBL-2H3 cells it was 100 to 1000 nM.

For `Cc1ccc(-c2cc3nccnc3c(NC[C@@H]3CCCNC3)n2)cc1Cl` [Compound 76], the IC50 on Syk kinase and with RBL-2H3 cells was 100 to 1000 nM throughout.

As to `CC(C)Oc1ccc(-c2cc3nccnc3c(NC[C@@H]3CCCNC3)n2)cc1F` [Compound 88], the IC50 on Syk kinase and in the assay with RBL-2H3 cells was 100 to 1000 nM in each case.

Turning to `Fc1cc(-c2cc3nccnc3c(NCC3(F)CCCNC3)n2)ccc1N1CCOCC1` (stereo not shown) [Compound 254], the IC50 at Syk kinase and with RBL-2H3 cells was 1 to 100 nM throughout.

Take `CS(=O)(=O)N1CCO[C@H](CNc2nc(-c3ccc(N4CCOCC4)cc3)cc3nccnc23)C1` [Compound 332]: the IC50 at Syk kinase and in the assay with RBL-2H3 cells was 1 to 100 nM throughout.

Take `OCCCOc1ccc(-c2cc3nccnc3c(NC[C@@H]3CNCCO3)n2)cc1` [Compound 476, (S)-3-(4-(5-(morpholin-2-ylmethylamino)pyrido[4,3-b]pyrazin-7-yl)phenoxy)propan-1-ol]: the IC50 on Syk kinase and in the assay on RBL-2H3 cells was 1 to 100 nM throughout.

As for `CN(CCCN)c1nc(-c2ccc(N3CCOCC3)cc2)cc2nccnc12` [Compound 4], the IC50 on Syk kinase and with RBL-2H3 cells was 100 to 1000 nM in each case.

Turning to `CCNC[C@@H]1CCN(c2nc(-c3ccc(N4CCOCC4)cc3)cc3nccnc23)C1` [Compound 148], the IC50 on Syk kinase and with RBL-2H3 cells was 100 to 1000 nM throughout.

Take `NCCCNc1nc(-c2ccc(N3CCOCC3)nc2)cc2nccnc12` [Compound 194]: the IC50 on Syk kinase and in the assay with RBL-2H3 cells was 100 to 1000 nM in each case.

For the molecule `CS(=O)(=O)N1CCN(Cc2ccc(-c3cc4nccnc4c(NC[C@@H]4CNCCO4)n3)cc2)CC1` [Compound 503], the results for the IC50 at Syk kinase and in the assay with RBL-2H3 cells were 1 to 100 nM and 100 to 1000 nM, respectively.

For the molecule `CC(C)(O)C(=O)N1CCN(c2ccc(-c3cc4nccnc4c(NC[C@@H]4CNCCO4)n3)cc2)CC1` [Compound 412], the IC50 on Syk kinase lay in the range of 1 to 100 nM; in the assay on RBL-2H3 cells it was 100 to 1000 nM.

Take `FC1(F)CCN(c2ccc(-c3cc4nccnc4c(NC[C@@H]4CNCCO4)n3)cc2)C1` [Compound 226]: the IC50 on Syk kinase and in the assay with RBL-2H3 cells was 1 to 100 nM throughout.

`NC1CCN(c2nc(-c3ccc(N4CCOCC4)cc3)cc3nccnc23)C1` (stereo not shown) [Compound 28]: the IC50 on Syk kinase and in the assay with RBL-2H3 cells was 100 to 1000 nM in each case.

`FC1=CC(CNc2nc(-c3ccc(N4CCOCC4)cc3)cc3nccnc23)CNC1` (stereo not shown) [Compound 157]: the IC50 on Syk kinase and with RBL-2H3 cells was 1 to 100 nM throughout.

For the molecule `Cc1ccc(-c2cc3nccnc3c(NC[C@H]3CCCNC3)n2)cc1` [Compound 40], the values for the half-inhibitory concentration (IC50) at Syk kinase and with RBL-2H3 cells were 1 to 100 nM and 100 to 1000 nM, respectively.

As for `CNC(=O)COc1ccc(-c2cc3nccnc3c(NC[C@@H]3CNCCC3(F)F)n2)cc1` [Compound 388, (S)-2-(4-(5-((4,4-difluoropiperidin-3-yl)methylamino)pyrido[4,3-b]pyrazin-7-yl)phenoxy)-N-methylacetamide], the IC50 on Syk kinase and in the assay on RBL-2H3 cells was 1 to 100 nM in each case.

As for `CC(C)(F)C(=O)N1CCN(c2ccc(-c3cc4nccnc4c(NC[C@@H]4CNCCO4)n3)cc2)CC1` [Compound 437], the IC50 on Syk kinase and in the assay with RBL-2H3 cells was 1 to 100 nM each time.

On to `NS(=O)(=O)N1CCO[C@H](CNc2nc(-c3ccc(N4CCOCC4)cc3)cc3nccnc23)C1` [Compound 333], for which the IC50 at Syk kinase and with RBL-2H3 cells was 1 to 100 nM each time.

In the case of `FC(F)Oc1ccc(-c2cc3nccnc3c(NC[C@@H]3CNCCO3)n2)cc1` [Compound 138], the IC50 on Syk kinase and in the assay with RBL-2H3 cells was 100 to 1000 nM each time.

On to `NC(=O)C1CCN(c2nc(-c3ccc(N4CCOCC4)cc3)cc3nccnc23)C1` (stereo not shown) [Compound 179], for which the IC50 lay within 1 to 100 nM on Syk kinase and 100 to 1000 nM with RBL-2H3 cells.

Take `CS(=O)(=O)NC[C@@H]1CCN(c2nc(-c3ccc(N4CCOCC4)cc3)cc3nccnc23)C1` [Compound 149, (R)—N-((1-(7-(4-morpholinophenyl)pyrido[4,3-b]pyrazin-5-yl)pyrrolidin-3-yl)methyl)methanesulfonamide]: the IC50 at Syk kinase and in the assay on RBL-2H3 cells was 100 to 1000 nM in each case.

On to `CC(C)(C)c1ccc(-c2cc3nccnc3c(NC[C@H]3CCCNC3)n2)cc1` [Compound 79], for which the values for the IC50 on Syk kinase and in the assay with RBL-2H3 cells were 1 to 100 nM and 100 to 1000 nM, respectively.

On to `CCS(=O)(=O)N1CCN(c2ccc(-c3cc4nccnc4c(NC[C@@H]4CNCCO4)n3)cc2F)CC1` [Compound 287], for which the IC50 on Syk kinase and in the assay with RBL-2H3 cells was 1 to 100 nM each time.

Regarding `O=C([C@@H]1CCOC1)N1CCN(c2ccc(-c3cc4nccnc4c(NC[C@@H]4CNCCO4)n3)cc2)CC1` [Compound 417], the IC50 on Syk kinase lay within 1 to 100 nM; with RBL-2H3 cells, 100 to 1000 nM.

`CC(=O)N1CCN(c2ccc(-c3cc4nccnc4c(NC[C@H]4CNCCC4(F)F)n3)cc2)CC1` [Compound 385, (R)-1-(4-(4-(5-((4,4-difluoropiperidin-3-yl)methylamino)pyrido[4,3-b]pyrazin-7-yl)phenyl)piperazin-1-yl)ethanone]: the IC50 on Syk kinase and in the assay on RBL-2H3 cells was 1 to 100 nM throughout.

Regarding `O=S(=O)(C1CC1)N1CCC(c2ccc(-c3cc4nccnc4c(NC[C@@H]4CNCCO4)n3)cc2)CC1` [Compound 497], the IC50 on Syk kinase and in the assay on RBL-2H3 cells was 1 to 100 nM in each case.

Turning to `FC1(F)CCNCC1CNc1nc(-c2ccc(N3CCNCC3)cc2)cc2nccnc12` (stereo not shown) [Compound 307], the IC50 on Syk kinase and with RBL-2H3 cells was 1 to 100 nM throughout.

As to `c1cnc2c(NC[C@@H]3CNCCO3)nc(-c3ccc(N4CCCOCC4)nc3)cc2n1` [Compound 269], the IC50 at Syk kinase and in the assay on RBL-2H3 cells was 1 to 100 nM in each case.

With `CCC(=O)N1CCN(c2ccc(-c3cc4nccnc4c(NC[C@@H]4CNCCO4)n3)cc2)CC1` [Compound 267], the IC50 at Syk kinase and with RBL-2H3 cells was 1 to 100 nM in each case.

`COc1ccc(-c2cc3nccnc3c(NC[C@H]3CCCNC3)n2)cc1OC` [Compound 33]: the results for the IC50 on Syk kinase and with RBL-2H3 cells were 1 to 100 nM and 100 to 1000 nM, respectively.

For `c1cnc2c(NCC3CCNCC3)nc(-c3ccc(N4CCOCC4)cc3)cc2n1` [Compound 37], the IC50 at Syk kinase and with RBL-2H3 cells was 100 to 1000 nM each time.

As for `OCCN1CCN(c2ccc(-c3cc4nccnc4c(NCC4CNCCC4(F)F)n3)cc2)CC1` (stereo not shown) [Compound 312], the IC50 at Syk kinase and in the assay with RBL-2H3 cells was 1 to 100 nM throughout.

Take `FC1(F)CCNC[C@@H]1CNc1nc(-c2cnn(C3CCOCC3)c2)cc2nccnc12` [Compound 399, (R)—N-((4,4-difluoropiperidin-3-yl)methyl)-7-(1-(tetrahydro-2H-pyran-4-yl)-1H-pyrazol-4-yl)pyrido[4,3-b]pyrazin-5-amine]: the 50% inhibitory concentration (IC50) at Syk kinase and with RBL-2H3 cells was 1 to 100 nM throughout.

Turning to `CN(c1ccc(-c2cc3nccnc3c(NC[C@@H]3CNCCC3(F)F)n2)cc1)S(C)(=O)=O` [Compound 394, (S)—N-(4-(5-((4,4-difluoropiperidin-3-yl)methylamino)pyrido[4,3-b]pyrazin-7-yl)phenyl)-N-methylmethanesulfonamide], the IC50 at Syk kinase and in the assay on RBL-2H3 cells was 1 to 100 nM each time.

`CN1CCN(c2ccc(-c3cc4nccnc4c(NCC4CN(S(C)(=O)=O)CCO4)n3)cc2)CC1` (stereo in doubt) [Compound 486, (S)-7-(4-(4-methylpiperazin-1-yl)phenyl)-N-((4-(methylsulfonyl)morpholin-2-yl)methyl)pyrido[4,3-b]pyrazin-5-amine]: the IC50 at Syk kinase and in the assay with RBL-2H3 cells was 1 to 100 nM in each case.

`Cc1ccc(-c2cc3nccnc3c(NC[C@H]3CCCNC3)n2)cn1` [Compound 69]: the IC50 at Syk kinase and with RBL-2H3 cells was 100 to 1000 nM in each case.

In the case of `COCC(=O)N1CCC(c2ccc(-c3cc4nccnc4c(NC[C@@H]4CNCCO4)n3)cc2)CC1` [Compound 505], the IC50 at Syk kinase and with RBL-2H3 cells was 1 to 100 nM in each case.
